A melting point compilation (Tetko et al.; mined from patent text by program, amines drawn as free bases though some values may be those of a salt)

Row | melting point | SMILES
1 | 236 to 238 °C | CC(=O)Oc1ccc(-c2cc(=O)c3cc(Br)cc([N+](=O)[O-])c3o2)cc1F
2 | 90 to 94 °C | CCCCN1C(=O)c2cnc(-c3ccccc3)nc2N(C(=O)CN2CCN(C)CC2)c2ccccc21
3 | 54 to 56 °C | CC1(C)Cc2cccc(OCCCBr)c2O1
4 | 175 °C | O=C(Nc1ccccc1)C1=C(O)c2cccc(-c3ccccc3)c2OS1
5 | 151 to 154 °C | C[C@H](Nc1ncnc2[nH]cnc12)c1oc2ccc(Br)cc2c(=O)c1-c1ccccc1
6 | 75.6 to 76.4 °C | CCC(C)Sc1cc(C(F)(F)F)ccc1C(=O)c1cnoc1C1CC1 (stereo unspecified)
7 | 152 to 155 °C | O=C1C2=C(CCCC2)C(=O)N1c1cc([N+](=O)[O-])c(Cl)cc1F
8 | 164 to 166 °C | CO[Si](OC)(OC)c1ccc(C#Cc2ccc(C#Cc3ccc([Si](OC)(OC)OC)cc3)cc2)cc1
9 | 221 °C | Cn1c2ccc(Br)cc2c2cc(Br)cc([N+](=O)[O-])c21
10 | 192 to 196 °C | COC(=O)C=Cc1cnc(SC)nc1N
11 | 116 to 117 °C | CC(C)(CS(=O)(=O)c1ccc(Oc2ccc(Cl)cn2)cc1)C(=O)NO
12 | 126 to 129 °C | Cc1ccn2nc(S(=O)(=O)Nc3c(Cl)cccc3Cl)nc2n1
13 | 150 to 151 °C | O=C(N(C=Cc1ccc(F)cc1)C=Cc1ccc(F)cc1)C1(O)CSc2ccccc21 (stereo unspecified)
14 | 55 to 57 °C | Cc1ccc(Cl)cc1C(=O)CO
15 | 255 to 258 °C | CCCC(=O)c1cc2c(=O)cc(C(=O)O)[nH]c2cc1C
16 | 195 to 196 °C | S=C=Nc1ccc(Nc2ccncc2)cc1
17 | 110 to 112 °C | CN(C(=O)CCN)c1nnc(-c2cccnc2)s1
18 | 189 to 190 °C | Brc1nsc2nc3ccccc3n12
19 | 156 to 157 °C | CCCc1nc2cnc3ccccc3c2n1CCCCNS(=O)(=O)c1ccccc1
20 | 69 to 70 °C | COc1ccc(O)c(Cl)c1O
21 | 105 to 110 °C | CC(=O)Nc1cc2c(cc1Cl)CCN(C)C[C@@H]2c1ccccc1
22 | 199 to 204 °C | N#Cc1cnn(-c2ccc(Cl)cc2Cl)c1NN
23 | 97 °C | CCCCCCCc1cnc(-c2ccc(C(=O)Oc3ccc(-c4ncc(CCCCC)cn4)cc3)cc2)nc1
24 | 227 °C | Cc1cc(-n2ncc(=O)[nH]c2=O)cc(Cl)c1C(C)(C#N)c1ccc(Cl)cc1 (stereo unspecified)

Row | melting point | SMILES
25 | 190 °C | O=C(C=Cc1ccccc1)c1cccc(NC(=O)c2ccn3c2CSC3c2cccnc2)c1 (stereo unspecified)
26 | 92 to 94 °C | COC(=O)C(CO)NS(=O)(=O)c1ccc(OC)cc1 (stereo unspecified)
27 | 96 °C | CCC(C)c1cc(Cl)cc(Cl)c1OCC(=O)N1CCSC1=S (stereo unspecified)
28 | 128 °C | OC(Cn1cncn1)(c1ccc(Cl)cc1)C1(F)CC1 (stereo unspecified)
29 | 146 to 148 °C | CCN(CC)c1ccc(C(=O)O)nc1
30 | 208 to 210 °C | N#Cc1cc2c(cc1F)S(=O)(=O)NCN2C1CC1
31 | 171 to 172 °C | C=C[C@@H]1O[C@](C#CC2CC2)(C(F)(F)F)c2c(ccc(F)c2F)NC1=O (relative stereo)
32 | 202 to 204 °C | OCc1ccc(-c2ccc3nnn(Cc4ccc5ncccc5c4)c3n2)cc1F
33 | 118 °C | COc1cc2c(cc1OCc1ccccc1)C(C1(c3ccccc3OC)CC1)N(C)CC2 (stereo unspecified)
34 | 143 to 145 °C | N#Cc1cccc2c(-c3ccccc3)coc12
35 | 161 °C | CCCc1nc(/C=C/c2ccccc2)c(C(=O)OCC)n1Cc1cc2c(cc1Cl)OCO2
36 | 96 to 97 °C | CC(=O)NC(Cc1ccccc1)C(C)=O (stereo unspecified)
37 | 195 °C | NC1=NN(C(=O)NC=NO)C(=O)C1Cc1ccccc1 (stereo unspecified)
38 | 148 to 149 °C | COc1ccc(S(=O)(=O)N(CCC(F)=C(F)F)c2ccccc2/C=C/c2ccncc2)cc1
39 | 81 to 84 °C | COC(=O)C(c1ccccc1)N1C(=O)C(N=[N+]=[N-])C1Sc1nnc(C)s1 (stereo unspecified)
40 | 140 to 143 °C | O=C1C=CC(O)(c2nc3ccccc3s2)C(Cl)=C1 (stereo unspecified)
41 | 57 to 59 °C | CCN(CCF)CCN1C(=O)c2ccccc2C1=O
42 | 163 °C | COC(=O)C1=C(C)NC(C)=C(C(=O)OC(C)C)C1c1cc([N+](=O)[O-])ccc1Cl (stereo unspecified)
43 | 94 to 97 °C | COc1cc(C(Cn2ccnc2)Sc2ccc(C(=O)O)cc2)cc(OC)c1OC (stereo unspecified)
44 | 189 to 190 °C | COC(=O)c1ccc(-c2nc(-c3ccc(Cl)cc3)no2)c([N+](=O)[O-])c1
45 | 148 to 156 °C | CC(C)(C#N)Cc1ccc(-c2ccc(CC(C)(C)C#N)c(Cl)c2)cc1Cl
46 | 205 to 207 °C | COc1cc2c3c(nc4ccc(Cl)cc4c3c1)-c1ccccc1N2
47 | 127 to 131 °C | Cn1cnc2c(Cl)nccc21
48 | 126 to 128 °C | CCC(=O)N1CCC(=NO)c2cc(F)ccc21

Row | melting point | SMILES
49 | 137 to 141 °C | CC(Oc1ccc(Oc2cnc3ccccc3n2)cc1)C(=O)O (stereo unspecified)
50 | 124 to 125 °C | CCOC(=O)c1ccc(CN2CCN(C(=O)OC(C)(C)C)C(C(N)=O)C2)c(C(F)(F)F)c1 (stereo unspecified)
51 | 160 to 162 °C | O=C(Nc1ccc(-n2nc(C(F)(F)F)cc2C(F)(F)F)cc1)c1cccc(CO)c1
52 | 103 to 104 °C | CCCn1cc(C2CCC(=O)CC2)c2cc(C#N)ccc21
53 | 194 to 195 °C | COc1ccc(Oc2c(-c3ccc(S(C)(=O)=O)cc3)cnn(CC(F)(F)F)c2=O)cc1
54 | 217 to 220 °C | O=c1[nH]cc(Cc2ccccc2)c2ccccc12
55 | 190 to 192 °C | COCc1c(C(=O)OC(CO)CO)ncc2[nH]c3ccc(OCc4ccccc4)cc3c12
56 | 97 to 100 °C | CC(=CCc1c(C)nc(N)nc1Cl)c1cc(Cl)ccc1Cl
57 | 179 to 180 °C | CCCN=C(N)Nc1ccnc(S(C)=O)n1 (stereo unspecified)
58 | 228 °C | O=Cc1cc2cc(OCc3ccccc3)c(F)cc2nc1Cl
59 | 245 °C | CN1C(=O)C2C3Oc4ccccc4OC3=C3C(Oc4cccnc4N3C(=O)Oc3ccccc3)C2C1=O (stereo unspecified)
60 | 104 to 106 °C | Cc1cc(Cl)c2ccc(Cl)cc2c1CCC=O
61 | 151 to 152 °C | CC(Cl)c1cc(F)ccc1Oc1nc2ccc(-n3cc(-c4ccccc4)nn3)cc2cc1Cc1ccccc1 (stereo unspecified)
62 | 114 to 115 °C | FC(F)(F)c1cc(CO[C@@H]2CCCN(Cc3nnn[nH]3)[C@@H]2c2ccccc2)cc(C(F)(F)F)c1 (relative stereo)
63 | 100 to 102 °C | CC(O)CC1NC(=O)c2ccccc21 (stereo unspecified)
64 | 120 to 121 °C | COc1nc(OC)c(C(C)C)c(C(=O)c2cc(Cl)cc(Cl)c2)n1
65 | 170 to 172 °C | Cc1cc2c(CN3CCC(C)CC3)c(CO)c(Cl)nc2cc1Cl
66 | 242 to 244 °C | CCCc1nccn1-c1ncnc2nc[nH]c12
67 | 145 to 146 °C | CNC(=O)C1CCc2c(C(=O)c3ccccc3)cccc21 (stereo unspecified)
68 | 172 to 174 °C | NC(=O)c1ccc(S(=O)(=O)NCCC2CCC(CC(=O)O)CC2)cc1 (stereo unspecified)
69 | 137 °C | CC(=Cc1ccc(O)cc1)c1ccc2c(c1)C(C)(C)CC2(C)C
70 | 171 °C | O=C(Nc1cccc2[nH]ccc12)c1ccccc1OCC1CO1 (stereo unspecified)
71 | 193 to 194 °C | Cc1cc(O)n2nc(CN=[N+]=[N-])nc2n1
72 | 44 to 45 °C | COc1cc2c(cc1OC)C(CBr)OCCC2 (stereo unspecified)

Row | melting point | SMILES
73 | 224 °C | Cc1nc(C(=O)Nc2cccc(Oc3ccc4nc(NC(=O)C5CC5)cn4n3)c2)c(C)o1
74 | 167 °C | OCc1ccc(-c2ccccc2-c2nnnn2C(c2ccccc2)(c2ccccc2)c2ccccc2)cc1
75 | 159 to 161 °C | Cc1oc(-c2ccc(OCC(F)(F)F)cc2)nc1COc1ccc(CN(O)C(N)=O)cc1
76 | 57 to 58 °C | O[C@@H]1CCCC[C@H]1Nc1ccccc1 (relative stereo)
77 | 207 to 208 °C | Cc1nn2ccccc2c1C(=O)C1=CNCCC1
78 | 72 °C | CC(C)c1ccc2c(c1)C(O)(c1ccccn1)CC(C)(C)CO2 (stereo unspecified)
79 | 228 to 230 °C | COc1c(I)cc(-c2c3ccccc3cc3sc4ccccc4c23)cc1I
80 | 226 to 228 °C | CN1CC(CO)CC2c3cccc4c3C(CN4)CC21 (stereo unspecified)
81 | 120 to 121 °C | Cc1ccc(S(=O)(=O)NC(CCCCNC(=O)OCc2ccccc2)C(=O)O)cc1 (stereo unspecified)
82 | > 300 °C | CC1Sc2c(C(=O)O)c(=O)c3cc(F)c(N4CCC(N)C4)c(Cl)c3n21 (stereo unspecified)
83 | 180 °C | N#Cc1cc([N+](=O)[O-])ccc1Oc1ccc(C(=O)c2ccccc2)cc1
84 | 122 to 124 °C | Cc1cccc(CC(=O)Nc2cc(Cl)c(Cl)cc2[N+](=O)[O-])c1
85 | 193 to 198 °C | CNC(=O)CS(=O)(=O)Nc1c(F)cccc1Oc1nc(OC)cc(OC)n1
86 | 85.5 to 86 °C | CCCCCCCCCCCCCCCCOc1cc(NS(=O)(=O)c2cc([N+](=O)[O-])ccc2OCCOC)c(O)cc1C
87 | 218 to 220 °C | CC(C)c1ccc(S(=O)(=O)c2ccccc2)cc1S(=O)(=O)NC1CCN(C(=O)c2ccc(F)cc2)CC1
88 | 155 to 157 °C | COc1ccc(OC(C)=O)c(C(=O)O)c1
89 | 177 to 179 °C | COc1ccccc1CNc1cc(C(=O)Nc2ccccc2)ccc1OC
90 | 222 to 226 °C | CC(C)Cn1cnc2c(N)nc3c(c21)NCCC3
91 | 180 to 182 °C | COC(=O)C1(O/N=C(\C(=O)OC(c2ccccc2)c2ccccc2)c2csc(NC(c3ccccc3)(c3ccccc3)c3ccccc3)n2)CCCCC1
92 | 149 to 152 °C | CCCCc1nc(Cl)c(COC)n1Cc1ccc(-c2ccccc2Cc2nnn[nH]2)cc1
93 | 98 to 100 °C | CC(=O)Nc1ccn([C@@H]2C[C@H](OC(C)=O)[C@@H](O)[C@H]2O)c(=O)n1 (racemic)
94 | 203 °C | Cc1ccc(-c2cc(C(F)(F)F)nn2-c2ccc(S(=O)(=O)NO)cc2)cc1

Row | SMILES | melting point
95 | CN(C)CCc1cn(C(=O)c2ccccc2)c2ccc(O)cc12 | 154 to 156 °C
96 | Fc1ccc(-c2csc(-c3cn([C@H]4CN5CCC4CC5)nn3)c2)cn1 | 136 °C
97 | CCCC12CCC3C4CCC(=O)C=C4CCC3C1CCC2O (stereo unspecified) | 126 to 127 °C
98 | COC(=O)C1=C(N)CC2CC[C@H]1N2C | 95 to 98 °C
99 | Cc1ccc(CNC(=O)c2cc3c(ccc4cnn(C[C@H](C)N)c43)o2)o1 | 118 to 120 °C
100 | O=C(O)C1(c2ccccc2)CCN(Cc2ccccc2)CC1 | 286 °C
101 | c1ccc(CCN2CCC(Nc3nc4ccccc4n3CCc3cccs3)CC2)cc1 | 118 °C
